Patent US7544694B2, “Substituted diaza-spiro-[5.5]-undecane derivatives and their use as neurokinin antagonists” (Janssen Pharmaceutica N.V., priority 2004, dated 2009)

Experiments:
Assay type in all cases: cell-based
NK1 = NK1 (Homo sapiens, UniProt P25103); assay: Signal transduction (ST), intracellular Ca++ (FLIPR), functional NK1 antagonistic activity; conditions: antagonist, read-out: NK1 pIC50 (converted)
Protocol: (§1) This test evaluates in vitro functional NK1 antagonistic activity. For the measurements of intracellular Ca^++ concentrations the cells were grown on 96-well (black wall/transparent bottom) plates from Costar for 2 days until they reached confluence. The cells were loaded with 2 μM Fluo3 in DMEM containing 0.1% BSA and 2.5 mM probenecid for 1 h at 37° C. They were washed 3× with a Krebs buffer (140 mM NaCl, 1 mM MgCl2×6H2O, 5 mM KCl, 10 mM glucose, 5 mM HEPES; 1.25 mM CaCl2; pH 7.4) containing 2.5 mM probenecid and 0.1% BSA (Ca^++-buffer). The cells were preincubated with a concentration range of antagonists for 20 min at RT and Ca^++-signals after addition of the agonists were measured in a Fluorescence Image Plate Reader (FLIPR from Molecular Devices, Crawley, England). The peak of the Ca^++-transient was considered as the relevant signal and the mean values of corresponding wells were analysed as described below.
(§2) The sigmoidal dose response curves were analysed by computerised curve-fitting, using the GraphPad Program. The EC50-value of a compound is the effective dose showing 50% of maximal effect. For mean curves the response to the agonist with the highest potency was normalised to 100%. For antagonist responses the IC50-value was calculated using non-linear regression.
(§3) The last columns indicate—without being limited thereto—for which action the compounds might be most suitable. Of course, since for some neurokinin receptors no data was determined, it is obvious that these compounds might be attributed to another suitable use.

NK2 = molecular target: T1, NK2 (Homo sapiens, UniProt P21452); assay: Signal transduction (ST), intracellular Ca++ (FLIPR), NK2; conditions: antagonist, read-out: NK2 pIC50 (converted)
T1 sequence (P21452 1-398): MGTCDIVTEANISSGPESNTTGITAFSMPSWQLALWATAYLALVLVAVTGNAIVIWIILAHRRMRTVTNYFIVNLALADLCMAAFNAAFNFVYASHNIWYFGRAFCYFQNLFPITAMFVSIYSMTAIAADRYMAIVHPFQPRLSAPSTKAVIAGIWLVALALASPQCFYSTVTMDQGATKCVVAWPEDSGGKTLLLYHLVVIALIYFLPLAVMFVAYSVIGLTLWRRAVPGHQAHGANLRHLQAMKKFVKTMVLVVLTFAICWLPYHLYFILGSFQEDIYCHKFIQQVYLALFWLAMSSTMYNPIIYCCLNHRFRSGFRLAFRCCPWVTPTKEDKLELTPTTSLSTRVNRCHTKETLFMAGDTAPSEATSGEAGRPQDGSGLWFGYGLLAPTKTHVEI
Protocol: [The source words this procedure for another target and reports this target under the same test.] as §1, §2, §3

NK3 = molecular target: T2, NK3 (Homo sapiens, UniProt P29371); assay: Signal transduction (ST), intracellular Ca++ (FLIPR), NK3; conditions: antagonist, read-out: NK3 pIC50 (converted)
T2 sequence (P29371 1-465): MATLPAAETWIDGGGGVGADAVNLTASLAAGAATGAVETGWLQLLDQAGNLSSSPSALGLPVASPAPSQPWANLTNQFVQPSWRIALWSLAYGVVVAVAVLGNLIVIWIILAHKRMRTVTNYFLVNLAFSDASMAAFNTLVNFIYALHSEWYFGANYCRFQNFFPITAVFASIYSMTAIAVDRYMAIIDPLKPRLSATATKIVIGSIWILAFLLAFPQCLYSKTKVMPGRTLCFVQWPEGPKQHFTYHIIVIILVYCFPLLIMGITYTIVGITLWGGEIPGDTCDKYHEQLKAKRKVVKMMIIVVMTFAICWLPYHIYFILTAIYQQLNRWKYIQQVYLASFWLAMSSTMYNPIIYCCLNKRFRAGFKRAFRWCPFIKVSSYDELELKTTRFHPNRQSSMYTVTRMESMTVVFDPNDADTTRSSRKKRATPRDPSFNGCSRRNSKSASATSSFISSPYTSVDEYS
Protocol: [The source words this procedure for another target and reports this target under the same test.] as §1, §2, §3

Chain of NK1 (P25103 whole entry): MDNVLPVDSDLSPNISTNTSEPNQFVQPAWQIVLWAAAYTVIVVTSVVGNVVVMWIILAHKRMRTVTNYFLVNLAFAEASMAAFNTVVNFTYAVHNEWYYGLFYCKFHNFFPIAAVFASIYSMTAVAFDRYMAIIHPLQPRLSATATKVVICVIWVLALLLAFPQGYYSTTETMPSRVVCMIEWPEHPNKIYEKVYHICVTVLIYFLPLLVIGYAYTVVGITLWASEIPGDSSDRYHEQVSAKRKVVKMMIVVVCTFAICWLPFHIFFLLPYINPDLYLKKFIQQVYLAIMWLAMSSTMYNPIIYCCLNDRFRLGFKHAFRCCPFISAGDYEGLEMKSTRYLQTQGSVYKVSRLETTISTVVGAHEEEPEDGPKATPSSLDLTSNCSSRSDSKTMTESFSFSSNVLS

Compound	IC50 (NK1) [µM]	IC50 (NK2) [µM]	IC50 (NK3) [µM]
O=C(C1=COCCC1)N1CCC2(CC1)CCN([C@H]1CCN(C(=O)c3cc(C(F)(F)F)cc(C(F)(F)F)c3)[C@H](Cc3ccccc3)C1)CC2 [Compound 45]	0.0794	5.37	> 10
Cc1cc(=O)oc(C)c1C(=O)N1CCC2(CC1)CCN([C@H]1CCN(C(=O)c3cc(C(F)(F)F)cc(C(F)(F)F)c3)[C@H](Cc3ccccc3)C1)CC2 [Compound 47]	0.0661	~10	> 10
CN1CCC=C(C(=O)N2CCC3(CC2)CCN([C@H]2CCN(C(=O)c4cc(C(F)(F)F)cc(C(F)(F)F)c4)[C@H](Cc4ccccc4)C2)CC3)C1 [Compound 48]	0.219	> 10	> 10
O=C(c1ccccn1)N1CCC2(CC1)CCN([C@H]1CCN(C(=O)c3cc(C(F)(F)F)cc(C(F)(F)F)c3)[C@H](Cc3ccccc3)C1)CC2 [Compound 49]	0.107	3.98	> 10
O=C(c1cnccn1)N1CCC2(CC1)CCN([C@H]1CCN(C(=O)c3cc(C(F)(F)F)cc(C(F)(F)F)c3)[C@H](Cc3ccccc3)C1)CC2 [Compound 52]	0.0603	2.88	> 10
O=C(c1ccc[nH]c1=O)N1CCC2(CC1)CCN([C@H]1CCN(C(=O)c3cc(C(F)(F)F)cc(C(F)(F)F)c3)[C@H](Cc3ccccc3)C1)CC2 [Compound 55]	0.158	3.98	> 10
O=C1CCC(C(=O)N2CCC3(CC2)CCN([C@H]2CCN(C(=O)c4cc(C(F)(F)F)cc(C(F)(F)F)c4)[C@H](Cc4ccccc4)C2)CC3)=NN1 [Compound 58]	0.0646	> 10	> 10
O=C(c1cc(C(F)(F)F)cc(C(F)(F)F)c1)N1CC[C@@H](N2CCC3(CCN(C(=O)C45CC6CC(CC(C6)C4)C5)CC3)CC2)C[C@H]1Cc1ccccc1 [Compound 59]	0.347	> 10	5.89
O=C(c1cc(C(F)(F)F)cc(C(F)(F)F)c1)N1CC[C@H](N2CCC3(CCN(C(=O)C45CC6CC(CC(C6)C4)C5)CC3)CC2)C[C@H]1Cc1ccccc1 [Compound 60]	0.24	4.68	4.68
CC12CCC(C(=O)N3CCC4(CC3)CCN([C@H]3CCN(C(=O)c5cc(C(F)(F)F)cc(C(F)(F)F)c5)[C@H](Cc5ccccc5)C3)CC4)(OC1=O)C2(C)C (stereo partly drawn) [Compound 61]	0.263	> 10	> 10
CC(C)(C)CC(=O)N1CCC2(CC1)CCN([C@H]1CCN(C(=O)c3cc(C(F)(F)F)cc(C(F)(F)F)c3)[C@H](Cc3ccccc3)C1)CC2 [Compound 69]	0.0646	3.09	6.61
O=C(CC1C=CCC1)N1CCC2(CC1)CCN([C@H]1CCN(C(=O)c3cc(C(F)(F)F)cc(C(F)(F)F)c3)[C@H](Cc3ccccc3)C1)CC2 (stereo partly drawn) [Compound 70]	0.0813	5.37	> 10
O=C(CC1CCCCC1)N1CCC2(CC1)CCN([C@H]1CCN(C(=O)c3cc(C(F)(F)F)cc(C(F)(F)F)c3)[C@H](Cc3ccccc3)C1)CC2 [Compound 71]	0.0933	9.77	> 10
O=C(CC12CC3CC(CC(C3)C1)C2)N1CCC2(CC1)CCN([C@H]1CCN(C(=O)c3cc(C(F)(F)F)cc(C(F)(F)F)c3)[C@H](Cc3ccccc3)C1)CC2 [Compound 72]	0.324	> 10	> 10
O=C(NCC(=O)N1CCC2(CC1)CCN([C@H]1CCN(C(=O)c3cc(C(F)(F)F)cc(C(F)(F)F)c3)[C@H](Cc3ccccc3)C1)CC2)c1ccco1 [Compound 73]	0.0331	> 10	> 10
Cc1ccc(OCC(=O)N2CCC3(CC2)CCN([C@H]2CCN(C(=O)c4cc(C(F)(F)F)cc(C(F)(F)F)c4)[C@H](Cc4ccccc4)C2)CC3)c(C)c1 [Compound 74]	0.389	> 10	> 10
O=C(Cc1ccsc1)N1CCC2(CC1)CCN([C@H]1CCN(C(=O)c3cc(C(F)(F)F)cc(C(F)(F)F)c3)[C@H](Cc3ccccc3)C1)CC2 [Compound 76]	0.0257	1.15	3.98
O=C(Cn1cnnn1)N1CCC2(CC1)CCN([C@H]1CCN(C(=O)c3cc(C(F)(F)F)cc(C(F)(F)F)c3)[C@H](Cc3ccccc3)C1)CC2 [Compound 77]	0.0457	~8.13	> 10
O=C(CN1CCCC1=O)N1CCC2(CC1)CCN([C@H]1CCN(C(=O)c3cc(C(F)(F)F)cc(C(F)(F)F)c3)[C@H](Cc3ccccc3)C1)CC2 [Compound 78]	0.269	> 10	> 10

Results, then the compound that gave them:

IC50 (NK1) [µM]	IC50 (NK2) [µM]	IC50 (NK3) [µM]	Compound
0.105	6.31	> 10	O=C(c1ccc(=O)oc1)N1CCC2(CC1)CCN([C@H]1CCN(C(=O)c3cc(C(F)(F)F)cc(C(F)(F)F)c3)[C@H](Cc3ccccc3)C1)CC2 [Compound 46]
0.0776	2.63	> 10	O=C(c1cccnc1)N1CCC2(CC1)CCN([C@H]1CCN(C(=O)c3cc(C(F)(F)F)cc(C(F)(F)F)c3)[C@H](Cc3ccccc3)C1)CC2 [Compound 50]
0.0295	3.63	> 10	O=C(c1ccncc1)N1CCC2(CC1)CCN([C@H]1CCN(C(=O)c3cc(C(F)(F)F)cc(C(F)(F)F)c3)[C@H](Cc3ccccc3)C1)CC2 [Compound 51]
0.138	> 10	> 10	O=C(c1ncccc1O)N1CCC2(CC1)CCN([C@H]1CCN(C(=O)c3cc(C(F)(F)F)cc(C(F)(F)F)c3)[C@H](Cc3ccccc3)C1)CC2 [Compound 53]
0.151	1.91	> 10	O=C(c1ccc(=O)[nH]c1)N1CCC2(CC1)CCN([C@H]1CCN(C(=O)c3cc(C(F)(F)F)cc(C(F)(F)F)c3)[C@H](Cc3ccccc3)C1)CC2 [Compound 57]
0.186	> 10	> 10	O=C(c1ccc2c(c1)OCO2)N1CCC2(CC1)CCN([C@H]1CCN(C(=O)c3cc(C(F)(F)F)cc(C(F)(F)F)c3)[C@H](Cc3ccccc3)C1)CC2 [Compound 62]
0.437	7.94	> 10	O=C(c1ccc2c(c1)OCO2)N1CCC2(CC1)CCN([C@@H]1CCN(C(=O)c3cc(C(F)(F)F)cc(C(F)(F)F)c3)[C@H](Cc3ccccc3)C1)CC2 [Compound 63]
0.891	> 10	> 10	O=C(c1cc2ccccc2o1)N1CCC2(CC1)CCN([C@H]1CCN(C(=O)c3cc(C(F)(F)F)cc(C(F)(F)F)c3)[C@H](Cc3ccccc3)C1)CC2 [Compound 64]
0.0661	3.72	6.92	O=C(c1cnc2ccccc2n1)N1CCC2(CC1)CCN([C@H]1CCN(C(=O)c3cc(C(F)(F)F)cc(C(F)(F)F)c3)[C@H](Cc3ccccc3)C1)CC2 [Compound 66]
0.0575	9.77	> 10	Cc1nc2ccc(C(=O)N3CCC4(CC3)CCN([C@H]3CCN(C(=O)c5cc(C(F)(F)F)cc(C(F)(F)F)c5)[C@H](Cc5ccccc5)C3)CC4)cc2[nH]1 [Compound 67]
0.295	5.62	> 10	O=C(c1ccc2nonc2c1)N1CCC2(CC1)CCN([C@H]1CCN(C(=O)c3cc(C(F)(F)F)cc(C(F)(F)F)c3)[C@H](Cc3ccccc3)C1)CC2 [Compound 68]
